The results in this text go back to patent US20230339866A1, “Quinazoline compounds and the use thereof in the treatment of cancer” (TROBIO THERAPEUTICS PTY LTD, priority 2020, published 2023).

The subject of data set [1] is SK-N-SH neuroblastoma cells. The experiment in a line: Anti-proliferative activity (MTS assay) against SK-N-SH neuroblastoma cells. The settings on record: Homo sapiens, SK-N-SH, 72 h. The data set is classed as cell-based. The method, then: The ability of compounds of the disclosure to inhibit the proliferation of SK-N-SH neuroblastoma cells was also assessed. […] Cell viability was normalised to control (vehicle alone) and dose response curves and IC50 values (Table 4) were determined using Graph Pad Prism 6.

Data set [2] has as its system A2780 (ovarian). The experiment in a line: Anti-proliferative activity (Cell-Titre luminescence) against A2780 ovarian cancer cells. The data set is classed as cell-based. The settings on record: Homo sapiens, A2780, 72 h, 72 h exposure, Cell-Titre luminescent reagent. An outline of the steps:
(§1)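 Cells grown 24 h at 37 °C, 5% CO2, then exposed 72 h to compound at 30, 10, 3, 1, 0.3 and 0.1 μM. Viability by Cell-Titre luminescence (30 min), normalised to vehicle; EC50 from variable-slope sigmoidal nonlinear regression.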

For data set [3], the target named is T1, Tpm3.1 (Homo sapiens, UniProt P06753). The experiment in a line: Circular dichroism spectroscopy, thermal unfolding of Tpm3.1 peptides. The data set is classed as binding. Details: N-terminus (residues 2-80 with an initial Ala-Gly dipeptide to mimic N-terminal acetylation) of Tpm3.1; Peptides corresponding to the C-terminus (residues 139-248) and N-terminus; made in house. The settings on record: test compound 100 μM, peptide 20 μM, CD at 222 nm. The method, then: The interactions of compounds 11, 13, 32 and 92 with the N-terminus and overlap region of Tpm3.1 were measured using circular dichroism (CD) spectroscopy (see FIG. 1). Peptides corresponding to the C-terminus (residues 139-248) and N-terminus (residues 2-80 with an initial Ala-Gly dipeptide to mimic N-terminal acetylation) of Tpm3.1 were prepared as described in the literature (Janco et al., 2019). CD spectra and thermal unfolding isotherms of N_82AA_Tpm3.1 and C_109AA_Tpm3.1 peptides were acquired on a Chirascan Plus CD Spectrometer (Applied Photophysics Limited, U.K.) in stoppered 0.5 mm cuvettes (48/Q/0.5; Starna Scientific Ltd.). Proteins were dialyzed O/N against 10 mM NaH2 PO4, 150 mM NaCl, 75 μM TCEP (added prior to experiment), 1% (v/v) acetonitrile pH 7 buffer. Final concentration of peptides was 20 μM. Tpm samples containing the test compound (100 μM) were incubated at 37° C. O/N. CD spectra were measured from 195 to 260 nm with a 1 nm step size and a […], taking 3 to 4 averages at 37° C. The thermal unfolding was carried at 222 nm over the range 20-85° C. at the rate of 1° C./min. Sample was cooled down to the initial temperature and heating procedure was repeated 2 to 3 times. To obtain information of the major thermal transitions from individual isotherms, data were further smoothed by the Savitzky-Golay method (5-point window), differentiated and then fitted to multiple Gaussian peaks as described previously (Janco et al., 2012) (FIG. 2).
Background: CD spectra are sensitive to the conformation of chiral molecules.

Data set [4] has as its system A549 (NSCLC). The experiment in a line: Anti-proliferative activity (Cell-Titre luminescence) against A549 non-small cell lung cancer cells. The data set is classed as cell-based. The settings on record: Homo sapiens, A549, 72 h, 72 h exposure, Cell-Titre luminescent reagent. An outline of the steps: as §1
Data set [5] has as its system Tpm3.1-containing actin microfilaments. Description: Disruption of Tpm3.1-containing actin microfilaments in SK-N-SH cells (imaging and quantitation). The data set is classed as cell-based. The settings on record: SK-N-SH cells expressing Tpm3.1-mCherry, 24 hours, two concentrations. The method, then:
The ability of compounds 57, 87 and 92 to disrupt Tpm3.1-containing actin microfilaments was investigated in SK-N-SH neuroblastoma cells that express Tpm3.1 labelled with the mCherry fluorophore. Cells were seeded at 3×10^4 cells per well in a volume of 1000 μL complete media onto a 12 well plate containing 13 mm coverslips and left to plate down for 24 hours prior to treatment. Cells were then treated with DMSO and two concentrations of the test compounds. 24 hours post-treatment, cells were fixed with 16% paraformaldehyde (PBS) and stained with 488-Atto-Phalloidin to visualise the actin filament bundles. Single plane images were obtained using the Olympus IX83 epi-fluorescence microscope. Ten fields of view were collected for both Tpm3.1 mCherry fluorophore (FIG. 4) and 488-Atto-Phalloidin (FIG. 5) with each treatment condition.
Quantitation of either Tpm3.1 mCherry filaments or 488-Atto-Phalloidin filaments was performed using ImageJ 1.52p software (ImageJ, NIH). The mean pixel intensity from a cell was measured by using a line across the entire cell cytoplasmic area above or below the nuclear region. The line was made to cross the filament bundles at a […] for the measurement rather than run along a single filament. A total of n=100 cells were measured from ten fields of view. Cells with pixel intensities that were more than twice the average intensity in the field were excluded from the measurement. The mean pixel intensity from n=100 cells was imported into Microsoft Excel to obtain the average intensity of either Tpm3.1 mCherry filaments or 488-Atto-Phalloidin filaments from each treatment condition. Values were normalised as a percent of the 0 μM control in order to generate a bar graph.

Data set [6] has as its system Caco-2 (colorectal). The experiment in a line: Anti-proliferative activity against Caco-2 colorectal cancer cells. The data set is classed as cell-based. The settings on record: Homo sapiens, 72 h exposure. The method, then: (§2) The ability of compounds of the invention to inhibit the proliferation of cancer cells representative of non-small cell lung cancer and ovarian cancer (Table 2), pancreatic cancer, colorectal cancer and prostate cancer (Table 3) was assessed. Briefly, a predetermined number of cells as calculated from cell growth assays for each of the cell lines employed were seeded into their respective culture medium (using ATCC culture parameters—http://www.atcc.org) and cultured for 24 h at 37° C. and 5% CO2 in 96-well culture plates. Once attached, each cell line was then exposed to various concentrations of each respective analogue (30, 10, 3, 1, 0.3 and 0.1 μM), cultured for a further 72 h and exposed to Cell-Titre luminescent reagent (100 μL/well) for a further 30 min. Luminescence was captured using an EnVision multilabel reader and the data for each analogue concentration compared against no treatment control. Cell viability was normalised to control (vehicle alone) and dose response curves, and half maximal effective concentration (EC50) values were determined using Graph Pad Prism 6 (nonlinear regression sigmoidal dose-response variable slope).

Data set [7] relates to MIA PaCa-2 (pancreatic). The experiment in a line: Anti-proliferative activity against MIA PaCa-2 pancreatic cancer cells. The data set is classed as cell-based. The settings on record: Homo sapiens, 72 h exposure. How it is done:
as §2

The subject of data set [8] is PC3 (prostate). The experiment in a line: Anti-proliferative activity against PC3 prostate cancer cells. The settings on record: 72 h exposure. The data set is classed as cell-based. How it is done:
as §2

Data set [9] has as its system A2780 ovarian cancer cells. The settings on record: for Paclitaxel Max. Synergy / Paclitaxel Total Synergy: combination with paclitaxel; for Paclitaxel Max. Synergy / Paclitaxel Total Synergy / Vinorelbine Max. Synergy / Vinorelbine Total Synergy: Bliss score; for Paclitaxel Max. Synergy / Vinorelbine Max. Synergy: highest individual score of 6×6 matrix; for Paclitaxel Total Synergy / Vinorelbine Total Synergy: sum over matrix; for Vinorelbine Max. Synergy / Vinorelbine Total Synergy: combination with vinorelbine.
Procedure: (§3) The A2780 cell line was maintained as a monolayer in Dulbeccos Modified Eagles medium (DMEM) supplemented with 10% foetal bovine serum (FBS) and grown at 37° C. in a humidified atmosphere with 5% CO2. […] Each screening plate contained one 6×6 dose matrix for two drugs using two-fold dilution steps. […] Viability was measured after 72 hours using a standard MTS assay.
(§4) Synergistic drug interactions were determined for each pairwise drug combination by applying the Bliss-independence model that assumes independence of drug mechanisms.
(§5) The Bliss additivism model was used to calculate a predicted combined response C to two single agents with responses A and B (using GI values), as follows:
(§6) The final score for any combination was reported as the difference between the value predicted by the additive model and the experimentally observed value, normalised to 100. Using GI values the maximum possible synergy score is 100, with 0 indicating no synergy and negative indicating possible antagonism. Scores were also reported as a “Max synergy” score, which is the highest individual synergy score for each combination matrix, and a “Total synergy” score, which was obtained by summation of each individual synergy score for the matrix.

Data set [10] relates to A2780 ovarian cancer cells. The experiment in a line: cells. The settings on record: Homo sapiens, A2780, 72 h, read-out: IC50 values used for the dose matrix (compounds).
Procedure: as §3, §4, §5, §6
In data set [11] the target is T1, Tpm3.1. The experiment in a line: Actin depolymerisation assay. The data set is classed as biochemical. The settings on record: 50 μmol/L test compound, pyrene-labelled F-actin, 160 minutes. How it is done: A 12 μmol/L solution of labelled F-actin was prepared by polymerising the monomeric actin (35% pyrene labelled Rabbit Muscle (Cytoskeleton Inc)) into filaments in the presence of buffer T (100 mmol/L NaCl; 10 mmol/L Tris HCl pH 7.5; 2 mmol/L MgCl2; 1 mmol/L EGTA; 0.5 mmol/L DTT) with added ATP (0.2 mmol/L), for 1 hour in the dark at room temperature. Tpm3.1 (10 μmol/L) was reduced in buffer T containing 1 mmol/L DTT at 70° C. for 6 minutes and centrifuged at 60,000 rpm for 30 minutes to remove nonreduced dimers. […] Duplicate samples were diluted 12-fold using an F-actin polymerisation buffer (100 mmol/L NaCl; 10 mmol/L Tris HCl pH 7; 2 mmol/L MgCl2; 1 mmol/L EGTA; 0.2 mmol/L ATP; 1 mmol/L DTT) and the depolymerisation rates of F-actin alone, F-actin/Tpm3.1, and the F-actin/Tpm3.1/test compound filament complex were measured using a Costar 3915 fluorescence plate reader (407 nm) at 36-second intervals for 160 minutes at room temperature. Data were normalized to the initial fluorescence value and polymerisation curves of duplicate samples were fitted to a two-phase exponential decay model using OriginPro 9.1 (OriginLab) (FIG. 3A). Percent polymerisation was determined at t160 as a function of to (100%) (FIG. 3B, p<0.0001).
Target sequence in this assay (P06753 1-248 isoform P06753-2): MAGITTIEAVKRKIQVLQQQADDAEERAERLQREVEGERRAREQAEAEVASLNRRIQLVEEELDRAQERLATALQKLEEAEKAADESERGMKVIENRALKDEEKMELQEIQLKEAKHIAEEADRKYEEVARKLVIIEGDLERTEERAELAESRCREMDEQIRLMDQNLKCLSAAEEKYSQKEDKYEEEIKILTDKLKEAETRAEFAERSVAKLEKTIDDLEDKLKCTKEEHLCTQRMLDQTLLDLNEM

Read-outs that look alike come from different tables or passages of the source.

Consider `CN1CCN(CCNc2nc(-c3ccsc3)nc3ccccc23)CC1` [Compound 11, N-(2-(4-methylpiperazin-1-yl)ethyl)-2-(thiophen-3-yl)quinazolin-4-amine], for which the 50% inhibitory concentration (IC50) (commonly the concentration at which inhibition is half-maximal) in data set [1] amounted to 9.11 µM; in data set [2] it was 6.43 µM; in [4], 10.3 µM. Further, in data set [3], the “Effect on melting profile of the Tpm3.1 N-terminal peptide construct” value (“Effect on melting profile” below) is listed as “alter the melting profile”. The “Effect on stability (melting profile) of the overlap complex formed by the N- and C-terminal peptides” value in data set [3] is given as “decreasing”. Further, the “Effect on stability of the Tpm3.1 N-terminal peptide” value in data set [3] is “decrease the stability”.
On to `CN1CCN(CCNc2nc(-c3cc[nH]c3)nc3ccccc23)CC1` [Compound 13, N-(2-(4-methylpiperazin-1-yl)ethyl)-2-(1H-pyrrol-3-yl)quinazolin-4-amine], for which the IC50 in data set [1] is 1.72 µM; in data set [2], 5.65 µM; in data set [4] it was 6.5 µM. The “Effect on melting profile” value in data set [3] was “alter the melting profile”. Further, the “Effect on stability of the Tpm3.1 N-terminal peptide” value in [3] was “stabilizing effect”.
Turning to `OCCNc1nc(NCc2ccc(C(F)(F)F)cc2)nc2ccccc12` [Compound 32, 2-((2-((4-(trifluoromethyl)benzyl)amino)quinazolin-4-yl)amino)ethan-1-ol], the IC50 in data set [1] came out at 4.09 µM. For the same molecule, in data set [2], 1.28 µM corresponded to half-maximal inhibition (IC50). For the same molecule, in [3], the “Effect on melting profile” value is on record as “alter the melting profile”; the “Effect on stability (melting profile) of the overlap complex formed by the N- and C-terminal peptides” value was “increasing”; the “Effect on stability of the Tpm3.1 N-terminal peptide” value is listed as “decrease the stability”. The molecule further had an IC50 in data set [4] of 4.63 µM.
On to `CCc1ccc(CCNc2nc(NCCN3CCN(C)CC3)c3ccccc3n2)cc1` [Compound 57, N^2-(4-ethylphenethyl)-N^4-(2-(4-methylpiperazin-1-yl)ethyl)quinazoline-2,4-diamine], for which, in data set [5], the “Disruption of Tpm3.1-containing actin microfilaments” value (shortened to “Disruption”) is on record as “disrupt Tpm3.1-containing actin microfilaments in a dose-dependent manner”. The IC50 in data set [6] is 1.12 µM; in [7], 1.02 µM; in [1], 1.11 µM; in data set [2], 0.655 µM; in data set [4], 1.53 µM; in data set [8] it was 1.48 µM.
For `Fc1cccc(CCNc2nc(NCCc3c[nH]cn3)c3ccccc3n2)c1` [Compound 87, N^4-(2-(1H-imidazol-4-yl)ethyl)-N^2-(3-fluorophenethyl)quinazoline-2,4-diamine], the “Disruption” value in [5] is “disrupt Tpm3.1-containing actin microfilaments in a dose-dependent manner”. Also, the IC50 in data set [6] worked out at 4.33 µM; in data set [7], 2.75 µM; in data set [1] it was 1.38 µM; in data set [10], 3 µM; in data set [2], 2.6 µM; in data set [4], 2.36 µM. The same molecule returned an IC50 in [8] of 4.12 µM. For the same molecule, in data set [9], the “Paclitaxel Max. Synergy” value is 9.54. In data set [9], the “Paclitaxel Total Synergy” value was 28.53. In addition, the “Vinorelbine Max. Synergy” value in data set [9] is listed as 24.46. Further, the “Vinorelbine Total Synergy” value in [9] was determined as 160.51.
Consider `OCCCNc1nc(NCCc2cccc(C(F)(F)F)c2)nc2ccccc12` [Compound 92, 3-((2-((3-(trifluoromethyl)phenethyl)amino)quinazolin-4-yl)amino)propan-1-ol], for which the “Disruption” value in [5] was “disrupt Tpm3.1-containing actin microfilaments in a dose-dependent manner”. The “Inhibition of Tpm3.1 protection of actin filaments from depolymerisation” value in data set [11] was “inhibit the ability of Tpm3.1 to protect actin filaments from depolymerisation”. For the same molecule, the IC50 was 2.48 µM in data set [6]; 3.19 µM in data set [7]; 2 µM in data set [1]; 5 µM in data set [10]; 2.22 µM in data set [2]; 1.3 µM in [4]. In data set [8], this molecule displayed an IC50 of 4.49 µM. In [9], the “Paclitaxel Max. Synergy” value is listed as 17.97. Also, the “Paclitaxel Total Synergy” value in data set [9] came out at 100.06. Moreover, the “Vinorelbine Max. Synergy” value in [9] was found to be 27.55. For the same molecule, the “Vinorelbine Total Synergy” value in data set [9] was found to be 204.68. Further, in data set [3], the “Effect on melting profile” value is “alter the melting profile”. Further, in data set [3], the “Effect on stability of the Tpm3.1 N-terminal peptide” value is “decrease the stability”.
Turning to `CCC1=C[C@@H]2CN(C1)Cc1c([nH]c3ccccc13)[C@@](C(=O)OC)(c1cc3c(cc1OC)N(C)[C@H]1[C@@](O)(C(=O)OC)[C@H](OC(C)=O)[C@]4(CC)C=CCN5CC[C@]31[C@@H]54)C2` [vinorelbine, reference compound], in [9] (read-out: IC50 values used for the dose matrix (cytotoxic agents), A2780, single agent, MTS 72 hours), the IC50 was determined as 0.004 µM.
